Measured values published in patent EP4745137A1 (Gluetacs Therapeutics (Shanghai) Co., Ltd., priority 2023, dated 2025).

Legend:
[1] = biological target: T1, WEE1 (Homo sapiens, UniProt P30291+Q96SW2); assay: Western-blot assay of substrate protein degradation in hPBMCs, WEE1; format: cell-based; conditions: 24 hours of compound treatment, 50 nM and 500 nM tested (concentration behind the class not stated)
T1 construct: endogenous in cells; host or cells: hPBMCs (Milecell Biotechnologies)

[2] = biological target: T2, IKZF1 (Homo sapiens, UniProt Q13422+Q96SW2); assay: Western-blot assay of substrate protein degradation in hPBMCs, IKZF1; format: cell-based; conditions: 24 hours of compound treatment, 50 nM and 500 nM tested (concentration behind the class not stated)
T2 construct: endogenous in cells; host or cells: hPBMCs (Milecell Biotechnologies)
T2 sequence (Q13422 whole entry): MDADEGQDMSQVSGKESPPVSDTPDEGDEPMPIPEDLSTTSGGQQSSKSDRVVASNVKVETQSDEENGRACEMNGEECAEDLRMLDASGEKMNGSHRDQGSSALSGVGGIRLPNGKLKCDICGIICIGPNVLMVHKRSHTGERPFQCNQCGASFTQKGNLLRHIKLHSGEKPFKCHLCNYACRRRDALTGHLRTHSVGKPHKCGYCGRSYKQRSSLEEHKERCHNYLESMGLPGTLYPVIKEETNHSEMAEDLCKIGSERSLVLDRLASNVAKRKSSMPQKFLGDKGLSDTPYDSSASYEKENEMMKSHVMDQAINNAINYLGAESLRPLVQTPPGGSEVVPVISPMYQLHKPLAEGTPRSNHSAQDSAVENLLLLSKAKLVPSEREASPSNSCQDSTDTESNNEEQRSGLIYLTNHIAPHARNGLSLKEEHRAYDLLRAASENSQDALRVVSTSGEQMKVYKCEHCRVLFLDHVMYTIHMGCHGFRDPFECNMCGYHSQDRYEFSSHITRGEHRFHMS
T2 sequence (Q96SW2 whole entry): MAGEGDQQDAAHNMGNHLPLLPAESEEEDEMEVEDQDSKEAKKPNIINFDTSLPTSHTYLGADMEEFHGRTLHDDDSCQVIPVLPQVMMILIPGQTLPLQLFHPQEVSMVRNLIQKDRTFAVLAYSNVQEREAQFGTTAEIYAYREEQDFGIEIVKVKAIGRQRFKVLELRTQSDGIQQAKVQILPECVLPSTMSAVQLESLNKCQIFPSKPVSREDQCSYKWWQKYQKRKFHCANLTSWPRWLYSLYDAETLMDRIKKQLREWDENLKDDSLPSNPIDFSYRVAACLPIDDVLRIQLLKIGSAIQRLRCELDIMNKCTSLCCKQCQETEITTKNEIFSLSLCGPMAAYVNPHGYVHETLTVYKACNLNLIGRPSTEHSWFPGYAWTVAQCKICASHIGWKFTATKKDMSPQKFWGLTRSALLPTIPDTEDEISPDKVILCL
T2 sequence (Q16531 whole entry partner): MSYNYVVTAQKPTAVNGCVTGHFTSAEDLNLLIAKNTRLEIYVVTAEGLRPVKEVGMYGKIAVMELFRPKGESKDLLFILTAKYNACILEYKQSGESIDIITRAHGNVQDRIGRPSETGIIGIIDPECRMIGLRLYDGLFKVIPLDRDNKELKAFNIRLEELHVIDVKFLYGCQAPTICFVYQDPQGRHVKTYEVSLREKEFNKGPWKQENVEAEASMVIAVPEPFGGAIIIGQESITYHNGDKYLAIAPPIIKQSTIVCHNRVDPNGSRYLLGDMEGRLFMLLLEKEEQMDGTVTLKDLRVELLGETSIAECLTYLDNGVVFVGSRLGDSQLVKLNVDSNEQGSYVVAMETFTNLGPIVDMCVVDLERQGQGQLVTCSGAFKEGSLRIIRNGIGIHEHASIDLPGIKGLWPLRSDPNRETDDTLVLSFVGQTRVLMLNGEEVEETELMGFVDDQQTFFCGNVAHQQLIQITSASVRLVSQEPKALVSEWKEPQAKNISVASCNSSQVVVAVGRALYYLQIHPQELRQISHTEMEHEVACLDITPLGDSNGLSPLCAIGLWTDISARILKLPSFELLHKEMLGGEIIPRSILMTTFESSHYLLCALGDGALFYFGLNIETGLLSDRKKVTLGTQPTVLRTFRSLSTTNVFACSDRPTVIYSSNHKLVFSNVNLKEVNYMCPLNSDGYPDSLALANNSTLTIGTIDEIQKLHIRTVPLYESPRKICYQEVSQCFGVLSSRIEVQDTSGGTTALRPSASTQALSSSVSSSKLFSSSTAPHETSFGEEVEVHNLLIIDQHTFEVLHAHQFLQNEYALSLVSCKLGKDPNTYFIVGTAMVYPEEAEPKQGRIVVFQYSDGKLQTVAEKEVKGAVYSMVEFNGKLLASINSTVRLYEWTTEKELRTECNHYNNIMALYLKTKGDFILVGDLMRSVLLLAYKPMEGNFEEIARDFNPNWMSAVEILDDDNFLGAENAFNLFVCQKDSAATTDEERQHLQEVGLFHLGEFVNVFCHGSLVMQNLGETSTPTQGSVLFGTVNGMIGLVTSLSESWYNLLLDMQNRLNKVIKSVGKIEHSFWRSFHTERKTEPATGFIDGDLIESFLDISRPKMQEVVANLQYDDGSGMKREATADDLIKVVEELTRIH

[3] = biological target: T3, IKZF2 (Homo sapiens, UniProt Q96SW2+Q9UKS7); assay: Western-blot assay of substrate protein degradation in hPBMCs, IKZF2; format: cell-based; conditions: 24 hours of compound treatment, 50 nM and 500 nM tested (concentration behind the class not stated)
T3 construct: endogenous in cells; host or cells: hPBMCs (Milecell Biotechnologies)
T3 sequence (Q9UKS7 whole entry): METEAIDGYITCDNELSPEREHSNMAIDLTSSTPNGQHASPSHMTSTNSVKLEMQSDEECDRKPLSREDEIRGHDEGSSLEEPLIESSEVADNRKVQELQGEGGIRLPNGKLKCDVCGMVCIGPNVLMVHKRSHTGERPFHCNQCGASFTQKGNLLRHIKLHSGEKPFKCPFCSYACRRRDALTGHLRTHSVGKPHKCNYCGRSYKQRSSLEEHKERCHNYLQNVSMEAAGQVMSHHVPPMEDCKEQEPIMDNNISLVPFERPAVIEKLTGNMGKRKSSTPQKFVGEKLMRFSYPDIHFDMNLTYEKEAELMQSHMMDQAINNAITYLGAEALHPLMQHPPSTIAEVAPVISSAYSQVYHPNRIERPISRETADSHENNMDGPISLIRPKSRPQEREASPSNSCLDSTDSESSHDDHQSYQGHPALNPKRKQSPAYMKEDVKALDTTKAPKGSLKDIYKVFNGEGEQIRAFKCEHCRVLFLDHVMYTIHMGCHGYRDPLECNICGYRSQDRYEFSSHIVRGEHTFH
T3 sequence (Q96SW2 whole entry): as the sequence (Q96SW2 whole entry) above
T3 sequence (Q16531 whole entry partner): as the sequence (Q16531 whole entry partner) above

[4] = biological target: T4, IKZF3 (Homo sapiens, UniProt Q96SW2+Q9UKT9); assay: Western-blot assay of substrate protein degradation in hPBMCs, IKZF3; format: cell-based; conditions: 24 hours of compound treatment, 50 nM and 500 nM tested (concentration behind the class not stated)
T4 construct: endogenous in cells; host or cells: hPBMCs (Milecell Biotechnologies)
T4 sequence (Q9UKT9 whole entry): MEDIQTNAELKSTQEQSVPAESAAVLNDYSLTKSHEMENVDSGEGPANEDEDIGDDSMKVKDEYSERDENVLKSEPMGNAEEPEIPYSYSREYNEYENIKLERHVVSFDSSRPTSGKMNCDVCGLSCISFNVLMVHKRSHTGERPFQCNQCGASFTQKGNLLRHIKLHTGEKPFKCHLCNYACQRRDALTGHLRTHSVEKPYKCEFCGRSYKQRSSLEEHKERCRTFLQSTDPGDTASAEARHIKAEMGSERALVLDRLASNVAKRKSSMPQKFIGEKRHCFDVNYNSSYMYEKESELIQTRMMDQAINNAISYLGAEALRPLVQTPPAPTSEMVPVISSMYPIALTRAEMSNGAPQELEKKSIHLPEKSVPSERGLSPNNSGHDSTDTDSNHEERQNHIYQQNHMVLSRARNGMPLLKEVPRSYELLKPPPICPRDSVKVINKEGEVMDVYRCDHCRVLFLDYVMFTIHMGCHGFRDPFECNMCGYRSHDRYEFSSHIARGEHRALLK
T4 sequence (Q96SW2 whole entry): as the sequence (Q96SW2 whole entry) above
T4 sequence (Q16531 whole entry partner): as the sequence (Q16531 whole entry partner) above

[5] = biological target: T5, CK1α (Homo sapiens, UniProt P48729+Q96SW2); assay: Western-blot assay of substrate protein degradation in hPBMCs, CK1α; format: cell-based; conditions: 24 hours of compound treatment, 50 nM and 500 nM tested (concentration behind the class not stated)
T5 construct: endogenous in cells; host or cells: hPBMCs (Milecell Biotechnologies)
T5 sequence (P48729 whole entry): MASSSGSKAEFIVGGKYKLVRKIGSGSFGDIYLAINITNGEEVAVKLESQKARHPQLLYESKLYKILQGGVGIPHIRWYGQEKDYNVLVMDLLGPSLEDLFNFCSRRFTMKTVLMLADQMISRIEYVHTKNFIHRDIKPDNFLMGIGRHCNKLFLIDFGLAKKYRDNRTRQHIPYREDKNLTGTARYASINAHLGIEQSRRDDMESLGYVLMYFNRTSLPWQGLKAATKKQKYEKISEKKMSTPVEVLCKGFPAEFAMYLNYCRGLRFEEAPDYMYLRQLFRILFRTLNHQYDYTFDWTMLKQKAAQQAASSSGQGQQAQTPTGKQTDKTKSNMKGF
T5 sequence (Q96SW2 whole entry): as the sequence (Q96SW2 whole entry) above
T5 sequence (Q16531 whole entry partner): as the sequence (Q16531 whole entry partner) above

[6] = biological target: T6, GSPT1 (Homo sapiens, UniProt P15170+Q96SW2); assay: Western-blot assay of substrate protein degradation in hPBMCs, GSPT1; format: cell-based; conditions: 24 hours of compound treatment, 50 nM and 500 nM tested (concentration behind the class not stated)
T6 construct: endogenous in cells; host or cells: hPBMCs (Milecell Biotechnologies)
T6 sequence (P15170 whole entry): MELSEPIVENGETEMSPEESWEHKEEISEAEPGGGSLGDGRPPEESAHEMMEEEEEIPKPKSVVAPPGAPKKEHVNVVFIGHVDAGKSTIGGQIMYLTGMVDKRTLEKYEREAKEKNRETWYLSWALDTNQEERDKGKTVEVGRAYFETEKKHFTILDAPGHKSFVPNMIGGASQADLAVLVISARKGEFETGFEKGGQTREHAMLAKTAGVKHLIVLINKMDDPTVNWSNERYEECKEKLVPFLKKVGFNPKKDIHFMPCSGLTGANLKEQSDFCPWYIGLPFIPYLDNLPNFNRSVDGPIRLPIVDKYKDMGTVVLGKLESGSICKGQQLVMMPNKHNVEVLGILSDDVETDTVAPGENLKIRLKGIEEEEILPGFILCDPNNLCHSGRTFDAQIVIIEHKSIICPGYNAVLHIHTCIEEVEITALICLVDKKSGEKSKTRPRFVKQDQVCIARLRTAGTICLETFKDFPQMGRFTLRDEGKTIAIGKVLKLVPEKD
T6 sequence (Q96SW2 whole entry): as the sequence (Q96SW2 whole entry) above
T6 sequence (Q16531 whole entry partner): as the sequence (Q16531 whole entry partner) above

[7] = biological target: T7, human Cereblon WT GST-tagged protein (Homo sapiens, UniProt Q96SW2); assay: CRBN-binding affinity by HTRF (CEREBLON BINDING kit); conditions: HTRF inhibitory activity, CEREBLON BINDING kit; read-out: HTRF IC50
T7 construct: purchased CISBIO 64BDCRBNPEH
T7 sequence (Q96SW2 whole entry): as the sequence (Q96SW2 whole entry) above

Row | IC50 [7] [nM] | Structure (SMILES) | Weel substrate protein remaining % [1] | IKZF 1 substrate protein remaining % [2] | IKZF2 substrate protein remaining % [3] | IKZF3 substrate protein remaining % [4] | CK1a substrate protein remaining % [5] | GSPT1 substrate protein remaining % [6]
1 | 1500 to 1900 | CC(C)c1cc2c(N3CCN(Cc4ccc5c(c4)C(=O)N(C4CCC(=O)NC4=O)C5=O)CC3)ncnc2s1 (stereo not drawn) [GT-06306, 2-(2,6-dioxopiperidin-3-yl)-5-((4-(6-isopropylthieno[2,3-d]pyrimidin-4-yl)piperazin-1-yl)methyl)isoindoline-1,3-dione] | B (80%< substrate protein remaining %≤ 100%) | A (0% ≤ substrate protein remaining % ≤ 80%) | A (0% ≤ substrate protein remaining % ≤ 80%) | A (0% ≤ substrate protein remaining % ≤ 80%) | A (0% ≤ substrate protein remaining % ≤ 80%) | A (0% ≤ substrate protein remaining % ≤ 80%)
2 | 1500 to 1900 | O=C1CCC(N2C(=O)c3ccc(CN4CCN(c5ncnc6sc(Br)cc56)CC4)cc3C2=O)C(=O)N1 (stereo not drawn) [GT-06309, 5-((4-(6-bromothieno[2,3-d]pyrimidin-4-yl)piperazin-1-yl)methyl)-2-(2,6-dioxopiperidin-3-yl)isoindoline-1,3-dione] | B (80%< substrate protein remaining %≤ 100%) | A (0% ≤ substrate protein remaining % ≤ 80%) | A (0% ≤ substrate protein remaining % ≤ 80%) | A (0% ≤ substrate protein remaining % ≤ 80%) | B (80%< substrate protein remaining %≤ 100%) | B (80%< substrate protein remaining %≤ 100%)
3 | 1000 to 1500 | Cc1nc(N2CCN(Cc3ccc4c(c3)C(=O)N(C3CCC(=O)NC3=O)C4=O)CC2)c2c3c(sc2n1)CCCC3 (stereo not drawn) [GT-06348, 2-(2,6-dioxopiperidin-3-yl)-5-((4-(2-methyl-5,6,7,8-tetrahydrobenzo[4,5]thieno[2,3-d]pyrimidin-4-yl)piperazin-1-yl)methyl)isoindoline-1,3-dione] | A (0% ≤ substrate protein remaining % ≤ 80%) | A (0% ≤ substrate protein remaining % ≤ 80%) | A (0% ≤ substrate protein remaining % ≤ 80%) | A (0% ≤ substrate protein remaining % ≤ 80%) | A (0% ≤ substrate protein remaining % ≤ 80%) | A (0% ≤ substrate protein remaining % ≤ 80%)
4 | 500 to 1000 | O=C1CCC(N2C(=O)c3ccc(CN4CCN(c5ncnc6sc7c(c56)CCCC7)CC4)cc3C2=O)C(=O)N1 (stereo not drawn) [GT-06564, 2-(2,6-dioxopiperidin-3-yl)-5-((4-(5,6,7,8-tetrahydrobenzo[4,5]thieno[2,3-d]pyrimidin-4-yl)piperazin-1-yl)methyl)isoindoline-1,3-dione] | A (0% ≤ substrate protein remaining % ≤ 80%) | A (0% ≤ substrate protein remaining % ≤ 80%) | A (0% ≤ substrate protein remaining % ≤ 80%) | A (0% ≤ substrate protein remaining % ≤ 80%) | A (0% ≤ substrate protein remaining % ≤ 80%) | A (0% ≤ substrate protein remaining % ≤ 80%)
5 | 1000 to 1500 | O=C1CCC(N2C(=O)c3ccc(CN4CCN(c5ncnc6sc7c(c56)CCC7)CC4)cc3C2=O)C(=O)N1 (stereo not drawn) [GT-06565, 5-((4-(6,7-dihydro-5H-cyclopenta[4,5]thieno[2,3-d]pyrimidin-4-yl)piperazin-1-yl)methyl)-2-(2,6-dioxopiperidin-3-yl)isoindoline-1,3-dione] | A (0% ≤ substrate protein remaining % ≤ 80%) | A (0% ≤ substrate protein remaining % ≤ 80%) | A (0% ≤ substrate protein remaining % ≤ 80%) | A (0% ≤ substrate protein remaining % ≤ 80%) | A (0% ≤ substrate protein remaining % ≤ 80%) | A (0% ≤ substrate protein remaining % ≤ 80%)
6 | 500 to 1000 | Cc1nc(N2CCN(Cc3ccc4c(c3)C(=O)N(C3CCC(=O)NC3=O)C4=O)CC2)c2c3c(sc2n1)CCC3 (stereo not drawn) [GT-06566, 2-(2,6-dioxopiperidin-3-yl)-5-((4-(2-methyl-6,7-dihydro-5H-cyclopenta[4,5]thieno[2,3-d]pyrimidin-4-yl)piperazin-1-yl)methyl)isoindoline-1,3-dione] | A (0% ≤ substrate protein remaining % ≤ 80%) | A (0% ≤ substrate protein remaining % ≤ 80%) | A (0% ≤ substrate protein remaining % ≤ 80%) | A (0% ≤ substrate protein remaining % ≤ 80%) | A (0% ≤ substrate protein remaining % ≤ 80%) | A (0% ≤ substrate protein remaining % ≤ 80%)
7 | 1000 to 1500 | O=C1CCC(N2C(=O)c3ccc(CN4CCN(c5ncc6ccsc6n5)CC4)cc3C2=O)C(=O)N1 (stereo not drawn) [GT-06567, 2-(2,6-dioxopiperidin-3-yl)-5-((4-(thieno[2,3-d]pyrimidin-2-yl)piperazin-1-yl)methyl)isoindoline-1,3-dione] | A (0% ≤ substrate protein remaining % ≤ 80%) | B (80%< substrate protein remaining %≤ 100%) | B (80%< substrate protein remaining %≤ 100%) | B (80%< substrate protein remaining %≤ 100%) | A (0% ≤ substrate protein remaining % ≤ 80%) | A (0% ≤ substrate protein remaining % ≤ 80%)
8 | 1500 to 1900 | Cc1sc2ncnc(C3CCN(Cc4ccc5c(c4)C(=O)N(C4CCC(=O)NC4=O)C5=O)CC3)c2c1C (stereo not drawn) [GT-06593, 5-((4-(5,6-dimethylthieno[2,3-d]pyrimidin-4-yl)piperidin-1-yl)methyl)-2-(2,6-dioxopiperidin-3-yl)isoindoline-1,3-dione] | A (0% ≤ substrate protein remaining % ≤ 80%) | A (0% ≤ substrate protein remaining % ≤ 80%) | A (0% ≤ substrate protein remaining % ≤ 80%) | A (0% ≤ substrate protein remaining % ≤ 80%) | B (80%< substrate protein remaining %≤ 100%) | A (0% ≤ substrate protein remaining % ≤ 80%)
9 | 500 to 1000 | O=C1CCC(N2C(=O)c3ccc(CN4CC=C(c5c[nH]c6cc(F)ccc56)CC4)cc3C2=O)C(=O)N1 (stereo not drawn) [GT-06634, 2-(2,6-dioxopiperidin-3-yl)-5-((4-(6-fluoro-1H-indol-3-yl)-3,6-dihydropyridin-1(2H)-yl)methyl)isoindoline-1,3-dione] | A (0% ≤ substrate protein remaining % ≤ 80%) | B (80%< substrate protein remaining %≤ 100%) | A (0% ≤ substrate protein remaining % ≤ 80%) | A (0% ≤ substrate protein remaining % ≤ 80%) | A (0% ≤ substrate protein remaining % ≤ 80%) | A (0% ≤ substrate protein remaining % ≤ 80%)
10 | 500 to 1000 | Cc1nc(C2CCN(Cc3ccc4c(c3)C(=O)N(C3CCC(=O)NC3=O)C4=O)CC2)c2c(-c3ccccc3)csc2n1 (stereo not drawn) [GT-06646, 2-(2,6-dioxopiperidin-3-yl)-5-((4-(2-methyl-5-phenylthieno[2,3-d]pyrimidin-4-yl)piperidin-1-yl)methyl)isoindoline-1,3-dione] | B (80%< substrate protein remaining %≤ 100%) | B (80%< substrate protein remaining %≤ 100%) | B (80%< substrate protein remaining %≤ 100%) | B (80%< substrate protein remaining %≤ 100%) | B (80%< substrate protein remaining %≤ 100%) | A (0% ≤ substrate protein remaining % ≤ 80%)
11 | 1500 to 1900 | O=C1CCC(N2C(=O)c3ccc(CN4CCC(c5ncnc6sc7c(c56)CCCC7)CC4)cc3C2=O)C(=O)N1 (stereo not drawn) [GT-06649, 2-(2,6-dioxopiperidin-3-yl)-5-((4-(5,6,7,8-tetrahydrobenzo[4,5]thieno[2,3-d]pyrimidin-4-yl)piperidin-1-yl)methyl)isoindoline-1,3-dione] | A (0% ≤ substrate protein remaining % ≤ 80%) | B (80%< substrate protein remaining %≤ 100%) | A (0% ≤ substrate protein remaining % ≤ 80%) | A (0% ≤ substrate protein remaining % ≤ 80%) | A (0% ≤ substrate protein remaining % ≤ 80%) | A (0% ≤ substrate protein remaining % ≤ 80%)
12 | 1500 to 1900 | O=C1CCC(N2C(=O)c3ccc(CN4CCC(c5ncnc6sc7c(c56)CCC7)CC4)cc3C2=O)C(=O)N1 (stereo not drawn) [GT-06650, 5-((4-(6,7-dihydro-5H-cyclopenta[4,5]thieno[2,3-d]pyrimidin-4-yl)piperidin-1-yl)methyl)-2-(2,6-dioxopiperidin-3-yl)isoindoline-1,3-dione] | A (0% ≤ substrate protein remaining % ≤ 80%) | B (80%< substrate protein remaining %≤ 100%) | B (80%< substrate protein remaining %≤ 100%) | B (80%< substrate protein remaining %≤ 100%) | B (80%< substrate protein remaining %≤ 100%) | B (80%< substrate protein remaining %≤ 100%)
